The values below come from patent US4584376A, “1-heterocyclicthio-1-cyclopropanecarbonitriles as crop protectants” (Monsanto Company, priority 1982, dated 1986).

Holding throughout (assay type): in vivo
For one experiment, the system named is Wheat. Description: Greenhouse safening test: % plant inhibition of wheat by herbicide with and without safener. Conditions: approx. 21 days; for % Plant Inhibition, Wheat (herbicide plus safener): H-1 (alachlor) 2.2 kg/ha plus safener 9.0 kg/ha, left-hand figure. The procedure:
(§1) Seed plantings and the sequential application of the herbicide and safening agents are accomplished in the following manner:
(§2) A fumigated silt loam to top soil is placed in a container and compacted to a depth of approximately 1.27 cm. from the top of said container. A predetermined number of seeds of each of the crop species to be tested are placed on top of the soil. A quantity of soil sufficient to substantially fill the container is measured and placed in a second container. A measured quantity of the herbicide dispersed or dissolved in a suitable carrier is applied to the soil in the second container. A measured quantity of the safening agent dispersed or dissolved in a suitable carrier is thereafter sprayed on the soil already treated with the […]. The soil containing the safening agent and/or herbicide is thoroughly mixed. This mixing is sometimes referred to as incorporation of the herbicide and safening agent into the soil. The mixing or incorporation provides a substantially uniform distribution of the safening agent and herbicide throughout the soil. The seeds are covered with the soil containing the safening agent and/or herbicide or with untreated soil, and the pots are leveled. The pots are then placed on a sand bench in a greenhouse and watered from below as needed. When the seeds are treated with safener, the application of the safener to the soil is omitted. The coated seeds are placed on top of the soil in the pot and the balance of the treatment procedure is the same. The plants are observed at the end of approximately 21 days and the results in terms of percent inhibition of growth are recorded.
(§3) For each test series, a pot is also prepared containing no herbicide and no safening agent as a control. For each treatment, the herbicidal activity is observed on pots treated with the same quantity of herbicide alone. The results are observed and recorded as percent inhibition of each plant species tested. The tank mixes of know herbicides, safeners or combinations thereof were prepared by dissolving the appropriate amount of active ingredient in acetone. In Table 2 the results of testing the compounds of the present invention have been set forth. The rates of herbicide application are given in kilograms per hectare. In each treatment the amount of safener employed was 9.0 kilograms per hectare. In the % Plant Inhibition section of Table 2 under the listed crop columns the data are the inhibitions for herbicide plus safener on the left side and for the herbicide alone on the right side. The known herbicides are identified as follows. Throughout the examples, the herbicides are individually identified by reference numbers H-1 and H-2.

A further experiment deals with Sorghum. Description: Greenhouse safening test: % plant inhibition of sorghum by herbicide with and without safener. As to conditions: approx. 21 days; for % Plant Inhibition, Sorghum (herbicide plus safener): H-1 (alachlor) 2.2 kg/ha plus safener 9.0 kg/ha, left-hand figure. The procedure:
as §1, §2, §3

Another experiment concerns Rice. As to the kind of experiment: Greenhouse safening test: % plant inhibition of rice by herbicide with and without safener. Conditions: approx. 21 days; for % Plant Inhibition, Rice (herbicide plus safener): left-hand figure; for % Plant Inhibition, Rice (herbicide alone): right-hand figure. On the procedure: as §1, §2, §3
Where [1] appears, read: H-2 (butachlor) 4.5 kg/ha plus safener 9.0 kg/ha.
[2] abbreviates: H-1 (alachlor) 2.2 kg/ha alone, right-hand figure.

Each structure is given as a SMILES string. Several values for one entry are separate records, joined by “and”; a condition that tells them apart may be missing. Equal entries are not always repeated.

Turning to `Cn1c(SC2(C#N)CC2)nnc1C(F)(F)F` [Compound 1, 1([4-methyl-5-(trifluoromethyl)4H.1,2,4-triazol-3 yl]thio)-1-cyclopropanecarbonitrile], the “% Plant Inhibition, Wheat (herbicide plus safener)” value with Wheat turned out to be 75%. Besides, in the experiment on Sorghum, the “% Plant Inhibition, Sorghum (herbicide plus safener)” value amounted to 100%. In the experiment on Rice (setting [1]), the “% Plant Inhibition, Rice (herbicide plus safener)” value is reported as 95%.
Consider `N#CC1(Sc2nc(-c3ccccc3)cs2)CC1` [Compound 2, 1-[(4-phenyl-2-thiazolyl)thio]-1-cyclopropanecarbonitrile], for which the “% Plant Inhibition, Sorghum (herbicide plus safener)” value in the experiment with Sorghum was 45%. For the same molecule, the “% Plant Inhibition, Rice (herbicide plus safener)” value was 95% in the experiment on Rice (H-1 (alachlor) 2.2 kg/ha plus safener 9.0 kg/ha) and 90% in the experiment with Rice (setting [1]).
`Cc1ccnc(SC2(C#N)CC2)n1` [Compound 3, 1-[(4-methyl-2-pyrimidinyl)thio]-1-cyclopropanecarbonitrile]: in the experiment on Wheat, the “% Plant Inhibition, Wheat (herbicide plus safener)” value was 90%. Also, the “% Plant Inhibition, Sorghum (herbicide plus safener)” value in the experiment with Sorghum was 95%. The “% Plant Inhibition, Rice (herbicide plus safener)” value in the experiment on Rice (setting [1]) was 40%.
As for `Cn1ccnc1SC1(C#N)CC1` [Compound 4, 1-[(1-methyl-1H--imidazol-2-yl)thio]-1-cyclopropanecarbonitrile], the “% Plant Inhibition, Wheat (herbicide plus safener)” value in the experiment on Wheat is listed as 100%. Further, the “% Plant Inhibition, Sorghum (herbicide plus safener)” value in the experiment on Sorghum is on record as 20%. Besides, the “% Plant Inhibition, Rice (herbicide plus safener)” value with Rice (setting [1]) is 95%.
Consider `CCc1cccc(CC)c1N(COC)C(=O)CCl` [Compound H-1, 2-chloro-2',6'-diethyl-N-(methoxymethyl) acetanilide, reference compound], for which the “% Plant Inhibition, Wheat (herbicide alone)” value in the experiment on Wheat (setting [2]) was 90% and 75% and 80%. Besides, the “% Plant Inhibition, Sorghum (herbicide alone)” value with Sorghum (setting [2]) was 90% and 80% and 85%. Besides, the “% Plant Inhibition, Rice (herbicide alone)” value in the experiment on Rice (H-1 (alachlor) 2.2 kg/ha alone) was 90%.
In the case of `CCCCOCN(C(=O)CCl)c1c(CC)cccc1CC` [Compound H-2, 2-chloro-2',6'-diethyl-N-(butoxymethyl) acetanilide, reference compound], the “% Plant Inhibition, Rice (herbicide alone)” value with Rice (H-2 (butachlor) 4.5 kg/ha alone) is 90% and 75% and 60%.
